Several values for one entry are separate records, joined by “and”; a condition that tells them apart may be missing. Equal values may be shown once. Read-outs that look alike come from different tables or passages of the source. Ends that are not written are not given here.
Key:
MDCK-II cells = settings: for Absorbance values - cytotoxicity at 24 h: MTT 570 nm; for Absorbance values - cytotoxicity at 24 h / Percentages of cytotoxicity at 24 h: replicates
[1] = system: Influenza A virus (A / WSN /33); experiment: microbe, parasite or virus in culture; settings: MDCK-II, 24 h
[2] = system: Influenza A virus (A / WSN /33)
SARS-CoV2 [3] = experiment: microbe, parasite or virus in culture; settings: Severe acute respiratory syndrome coronavirus 2, Vero, 24 h
Vero cells = settings: for Absorbance values - cytotoxicity at 24 h / Percentages of cytotoxicity at 24 h / cytotoxicity (in words): Vero cells; for Absorbance values - cytotoxicity at 24 h: MTT 570 nm; for Absorbance values - cytotoxicity at 24 h / Percentages of cytotoxicity at 24 h: replicates
Description: (§1) Antiviral activity was determined at 24 h using an immunofluorescence-based assay. Cytotoxicity was determined using an MTT assay on uninfected cells treated with the same concentrations of peptide.
(§2) Virus and peptide were left on the cells for the entire duration of the experiment (24 h).
(§3) Either immediately after infection, or 2 h after infection, 50µl of treatment from the dilution plate were transferred to the cells in each plate (infectivity and cytotoxicity). […] 50 µl of media without diluent were added to the cytotoxicity plate instead of virus. Both plates were incubated at 37° C., 5% CO2 for 24 h.
(§4) The cytotoxicity plate was treated with MTT to determine cell viability.
(§5) Cytotoxicity was detected by MTT assay following standard protocols and techniques. Briefly, the MTT reagent (Sigma, M5655) was added to the cells for 2 h at 37° C., 5% CO2, after which the media was removed and the precipitate solubilized with a mixture of 1: 1 Isopropanol: DMSO for 20 minutes. The supernatant was transferred to a clean plate and signal read at 570 nm.

SARS-CoV2 [4] = system: SARS-CoV2
[5] = Preliminary safety in pilot studies using human subjects; assay type: in vivo
in vitro [6] = settings: African green monkey
Description: as §1, §2, §3, §4, §5

in vitro [7] = settings: dog, MTT
SARS-CoV-2 = experiment: Clinical study of INS peptide (GAMMORA) in patients with moderate to severe COVID-19; assay type: in vivo, human; settings: of 15 treated, 40 mg/day SC for 9 days plus standard of care (Atripla)
[8] = uninfected Vero cells, MTT, 24 h

O=C(Nc1ccc([N+](=O)[O-])cc1Cl)c1cc(Cl)ccc1O [Niclosamide, reference compound]
Absorbance values - cytotoxicity at 24 h (MDCK-II cells; 0 µM): 0.1646 and 0.1811
Percentages of cytotoxicity at 24 h (MDCK-II cells; 0 µM): 16.58% and 8.22%
Absorbance values - cytotoxicity at 24 h (MDCK-II cells; 0.01 µM): 0.2048
Percentages of cytotoxicity at 24 h (MDCK-II cells; 0.01 µM): -3.79%
Absorbance values - cytotoxicity at 24 h (MDCK-II cells; 0.04 µM): 0.2247 and 0.2292
Percentages of cytotoxicity at 24 h (MDCK-II cells; 0.04 µM): -13.87% and -16.15%
Absorbance values - cytotoxicity at 24 h (MDCK-II cells; 0.12 µM): 0.213 and 0.2407
Percentages of cytotoxicity at 24 h (MDCK-II cells; 0.12 µM): -7.94% and -21.98%
Absorbance values - cytotoxicity at 24 h (MDCK-II cells; 0.37 µM): 0.2429 and 0.2319
Percentages of cytotoxicity at 24 h (MDCK-II cells; 0.37 µM): -23.1% and -17.52%
Absorbance values - cytotoxicity at 24 h (MDCK-II cells; 1.11 µM): 0.227 and 0.2465
Percentages of cytotoxicity at 24 h (MDCK-II cells; 1.11 µM): -15.04% and -24.92%
Absorbance values - cytotoxicity at 24 h (MDCK-II cells; 3.33 µM): 0.2005 and 0.1965
Percentages of cytotoxicity at 24 h (MDCK-II cells; 3.33 µM): -1.61% and 0.42%
Absorbance values - cytotoxicity at 24 h (MDCK-II cells; 10 µM): 0.107 and 0.1166
Percentages of cytotoxicity at 24 h (MDCK-II cells; 10 µM): 45.77% and 40.91%
EC50 [1]: 610 nM
EC90 [1]: 3.06 µM
SI50 (=TC50/EC50) [2]: 16.84
SI90 (=TC90/EC90) [2]: 4.19

CCC(CC)COC(=O)[C@H](C)N[P@](=O)(OC[C@H]1O[C@@](C#N)(c2ccc3c(N)ncnn23)[C@H](O)[C@@H]1O)Oc1ccccc1 [Remdesivir, reference compound]
EC50 (SARS-CoV2 [3]): 1280 nM
EC90 (SARS-CoV2 [3]): 3.9 µM
Absorbance values - cytotoxicity at 24 h (Vero cells; 0.01 uM): 0.1378 and 0.1381
Absorbance values - cytotoxicity at 24 h (Vero cells; 0.03 uM): 0.147 and 0.1423
Absorbance values - cytotoxicity at 24 h (Vero cells; 0.08 uM): 0.1483 and 0.1462
Absorbance values - cytotoxicity at 24 h (Vero cells; 0.25 uM): 0.1554 and 0.1531
Absorbance values - cytotoxicity at 24 h (Vero cells; 0.74 uM): 0.1606 and 0.1568
Absorbance values - cytotoxicity at 24 h (Vero cells; 2.22 uM): 0.1599 and 0.1541
Absorbance values - cytotoxicity at 24 h (Vero cells; 6.67 uM): 0.1198 and 0.1127
Absorbance values - cytotoxicity at 24 h (Vero cells; 20 uM): 0.1234 and 0.1247
EC99.9 (SARS-CoV2 [4]): 4.4 µM

WTAVQMAVFIHNFKRK [Codivir]
adverse events / severe adverse events [5]: No adverse events or severe adverse events were detected
tolerability, side effects [5]: tolerable, exhibits no reported side effects and no harm to immune system, with no adverse events
vital signs, physical examinations [5]: no significant differences
blood tests ([5]; relative to baseline): no significant changes relative to the baseline
CC50 at 24 h (in vitro [6]): 43.5 µM
Absorbance values - cytotoxicity at 24 h (Vero cells; 0.05 uM): 0.1161 and 0.1456 and 0.1448 and 0.1447 and 0.1351
Percentages of cytotoxicity at 24 h (Vero cells; 0.05 uM): 4.24% and -20.09% and -19.43% and -19.35% and -9.12% and -11.43%
Absorbance values - cytotoxicity at 24 h (Vero cells; 0.15 uM): 0.1361 and 0.143 and 0.1487 and 0.1479 and 0.1455 and 0.1446
Percentages of cytotoxicity at 24 h (Vero cells; 0.15 uM): -12.26% and -17.95% and -22.65% and -21.99% and -20.01% and -19.27%
Absorbance values - cytotoxicity at 24 h (Vero cells; 0.46 uM): 0.1454 and 0.1447 and 0.1452 and 0.1433 and 0.1468 and 0.1493
Percentages of cytotoxicity at 24 h (Vero cells; 0.46 uM): -19.93% and -19.35% and -19.76% and -18.20% and -21.08% and -23.15%
Absorbance values - cytotoxicity at 24 h (Vero cells; 4.17 uM): 0.1306 and 0.1426 and 0.1477 and 0.1432 and 0.1433 and 0.1556
Percentages of cytotoxicity at 24 h (Vero cells; 4.17 uM): -7.72% and -17.62% and -21.83% and -18.12% and -18.20% and -28.34%
Absorbance values - cytotoxicity at 24 h (Vero cells; 12.50 uM): 0.1196 and 0.1315 and 0.1325 and 0.1324 and 0.1314 and 0.1395
Percentages of cytotoxicity at 24 h (Vero cells; 12.50 uM): 1.35% and -8.46% and -9.29% and -9.21% and -8.38% and -15.06%
Absorbance values - cytotoxicity at 24 h (Vero cells; 25.00 uM): 0.0691 and 0.075 and 0.0733 and 0.0763 and 0.0762 and 0.0822
Percentages of cytotoxicity at 24 h (Vero cells; 25.00 uM): 43.00% and 38.14% and 39.54% and 37.07% and 37.15% and 32.20%
Absorbance values - cytotoxicity at 24 h (Vero cells; 75.00 uM): 0.0407 and 0.0403 (2×) and 0.0389 and 0.0414 and 0.0421
Percentages of cytotoxicity at 24 h (Vero cells; 75.00 uM): 66.433% and 66.76% (2×) and 67.91% and 65.85% and 65.27%
cytotoxicity (in words) (Vero cells; at concentrations giving 90% inhibition of infectivity): minimal cytotoxicity
cytotoxicity (in words) (Vero cells; highest concentrations tested): Some cytotoxicity
TC90 (Vero cells; [8]): 143.6 µM
TC99.9 (Vero cells; [8]): 185.9 µM
EC50 (SARS-CoV2 [4]; 24 h): 12.5 µM
Absorbance values - cytotoxicity at 24 h (MDCK-II cells; 0.05 µM): 0.0985 and 0.1183 and 0.1389 and 0.1493 and 0.1468 and 0.1612
Absorbance values - cytotoxicity at 24 h (MDCK-II cells; 0.15 µM): 0.1552 and 0.1707 and 0.1789 and 0.1965 and 0.1896 and 0.2019
Absorbance values - cytotoxicity at 24 h (MDCK-II cells; 0.46 µM): 0.1522 and 0.1679 and 0.2104 and 0.2062 and 0.1922 and 0.1978
Absorbance values - cytotoxicity at 24 h (MDCK-II cells; 4.17 µM): 0.2071 and 0.1982 and 0.2203 and 0.2153 and 0.2027 and 0.2054
Absorbance values - cytotoxicity at 24 h (MDCK-II cells; 12.50 µM): 0.183 and 0.2158 and 0.2057 and 0.2165 and 0.2045 and 0.2113
Absorbance values - cytotoxicity at 24 h (MDCK-II cells; 25.00 µM): 0.1794 and 0.1713 and 0.1708 and 0.1681 and 0.1845 and 0.1841
Absorbance values - cytotoxicity at 24 h (MDCK-II cells; 75.00 µM): 0.0422 and 0.0436 and 0.0425 and 0.0421 (2×) and 0.0419
TC90 (MDCK-II cells; MTT, 24 h): around 100 µM
cytotoxicity (in words) (MDCK-II cells; highest concentrations tested): Some cytotoxicity
Percentages of cytotoxicity at 24 h (MDCK-II cells; post infection, 0.05 µM): 24.34% and 25.6% and 18.31%
Percentages of cytotoxicity at 24 h (MDCK-II cells; post infection, 0.15 µM): 0.42% and 3.91% and -2.32%
Percentages of cytotoxicity at 24 h (MDCK-II cells; post infection, 0.46 µM): -4.5% and 2.6% and -0.24%
Percentages of cytotoxicity at 24 h (MDCK-II cells; post infection, 4.17 µM): -9.11% and -2.72% and -4.09%
Percentages of cytotoxicity at 24 h (MDCK-II cells; post infection, 12.50 µM): -9.72% and -3.64% and -7.08%
Percentages of cytotoxicity at 24 h (MDCK-II cells; post infection, 25.00 µM): 14.81% and 6.5% and 6.7%
Percentages of cytotoxicity at 24 h (MDCK-II cells; post infection, 75.00 µM): 78.66% (2×) and 78.77%
Percentages of cytotoxicity at 24 h (MDCK-II cells; with infection, 0.05 µM): 50.08% and 40.05% and 29.61%
Percentages of cytotoxicity at 24 h (MDCK-II cells; with infection, 0.15 µM): 21.35% and 13.49% and 9.34%
Percentages of cytotoxicity at 24 h (MDCK-II cells; with infection, 0.46 µM): 22.87% and 14.91% and -6.63%
Percentages of cytotoxicity at 24 h (MDCK-II cells; with infection, 4.17 µM): -4.95% and -0.44% and -11.64%
Percentages of cytotoxicity at 24 h (MDCK-II cells; with infection, 12.50 µM): 7.26% and -9.36% and -4.24%
Percentages of cytotoxicity at 24 h (MDCK-II cells; with infection, 25.00 µM): 9.08% and 13.19% and 13.44%
Percentages of cytotoxicity at 24 h (MDCK-II cells; with infection, 75.00 µM): 78.61% and 77.9% and 78.46%
CC50 at 24 h (in vitro [7]; TC50, text, MDCK-II cells): ~50 µM
CC50 at 24 h (in vitro [7]; uninfected MDCK-II cells, TC50, post-infection row): 51 µM
CC50 at 24 h (in vitro [7]; uninfected MDCK-II cells, TC50, with infection row): 49.2 µM

WTAVQMAVFIHNFKRK [INS-HC1]
patients recovered completely and negative for SARS-CoV-2 at end of study (SARS-CoV-2): Four
patients discharged from intensive care unit (ICU) to the general ward with almost full recovery (SARS-CoV-2; moderate to severe COVID-19, control group (Atripla only): 14 out of 15 died): 15 patients

From patent US20230190863A1, “PHARMACEUTICAL COMPOSITIONS AND ANTI-VIRAL USES THEREOF” (priority 2020, published 2023)
